According to article PMC7144376, “Antiviral Effects of Novel 2-Benzoxyl-Phenylpyridine Derivatives” (Molecules, 2020):

Key:
ADV7 = test: Inhibition of ADV7-induced cytopathic effects in HeLa cells (MTT); assay type: cell-based, adenovirus type 7; conditions: for EC50: Human mastadenovirus B, 100 TCID50 ADV7, 48 h, MTT, read-out: EC50 (50% protection from virus-induced cytopathogenicity), ADV7
Description: (§1) Figure 1 Antiviral activities of novel 2-benzoxyl-phenylpyridine derivatives against CVB3 and ADV7. […] Hep-2 or HeLa cells were infected with 100 TCID50 of CVB3 or ADV7 for 1.5 h at 37 °C. Then, the inocula were aspirated and the cells were incubated with various concentrations of test compounds for 48 h. Cell viability was determined using the MTT assay. (b) Images showing the morphology of Hep-2 and HeLa cells treated with 120 μM W-9, 160 μM W-13, or 160 μM W-15 (magnification, 20×).
(§2) The antiviral activities of compounds against CVB3 and ADV7 were determined by measuring their inhibition of virus-induced CPEs in acutely infected Hep-2 and HeLa cells, respectively. Confluent cell monolayers in 96-well plates were infected with 100 TCID50 of CVB3 or ADV7 for 1.5 h at 37 °C, inocula were aspirated, and the cells then were incubated with various concentrations of compounds at 37 °C, 5% CO2, for 48 h. CPEs were observed by microscopy and the viability of cells was determined using MTT assays. The concentrations of test compounds required to achieve 50% protection from virus-induced cytopathogenicity (EC50 values) were determined. Adverse effects of tested compounds on host cells were also assessed using the MTT method after exposing uninfected cells to various concentrations of test compounds for 48 h at 37 °C. The CC50 values of compounds were calculated using SPSS software and selectivity indices were the ratio of CC50:EC50. Each experiment was performed in triplicate and at least three times, independently.

[1] = Cytotoxicity on uninfected HeLa cells (MTT, 48 h); assay type: cell-based; conditions: human, read-out: CC50 (reduce cell viability by 50%), ADV7 host cells
Description: (§3) Human laryngeal carcinoma cells (Hep-2) and human cervical carcinoma cells (HeLa) were maintained in DMEM (Gibco) supplemented with 10% fetal bovine serum (FBS; Gibco), 100 U/mL penicillin and streptomycin, and 2 mM L-glutamine.
as §2

[2] = Cytotoxicity on uninfected Hep-2 cells (MTT, 48 h); assay type: cell-based; conditions: human, read-out: CC50 (reduce cell viability by 50%), CVB3 host cells
Description: as §3, §2

CVB3 = test: Inhibition of CVB3-induced cytopathic effects in Hep-2 cells (MTT); assay type: cell-based, Coxsackievirus B3; conditions: for EC50: Enterovirus B, 100 TCID50 CVB3, 48 h, MTT, read-out: EC50 (50% protection from virus-induced cytopathogenicity), CVB3
Description: as §1, §2

Compound	SI (CC50/EC50), ADV7 (ADV7)	inhibitory activity against ADV7 infection (in words) (ADV7)	EC50 (ADV7) [µM]	CC50 at 48 h [1] [µM]	CC50 at 48 h [2] [µM]	SI (CC50/EC50), CVB3 (CVB3)	inhibitory activity against CVB3 infection (in words) (CVB3)	EC50 (CVB3) [µM]
O=C(Oc1cc(Br)ccc1-c1ccccn1)c1ccccc1 [W10]	4.9	significant inhibitory activities	51.1 ± 20.1	249 ± 23.2	184 ± 26.3	5.0	significant inhibitory activities	36.7 ± 15.8
Cc1ccc(OC(=O)c2ccccc2)c(-c2ncccc2C)c1 [W6]	4.9	significant inhibitory activities	66 ± 20.1	326 ± 21.8	244 ± 30.4	2.8	significant inhibitory activities	88.4 ± 19.5
COc1ccc(OC(=O)c2ccccc2)c(-c2ncccc2C)c1 [W5]	–	–	–	38.9 ± 18.8	33.5 ± 9.4	–	–	–
Cc1cccnc1-c1ccc(Cl)cc1OC(=O)c1ccccc1 [W4]	–	–	–	797 ± 45.7	222 ± 24.1	4.1	selective antiviral activities against CVB3	54.4 ± 11.1
CC(=O)c1ccc(-c2ccccn2)c(OC(=O)c2ccccc2)c1 [W14]	13.0	significant inhibitory activities	75.4 ± 20.2	979 ± 27.8	490 ± 26.8	5.6	significant inhibitory activities	87.1 ± 21.1
O=C(Oc1ccsc1-c1ccccn1)c1ccccc1 [W11]	–	–	–	1020 ± 72.6	378 ± 19.2	–	–	–
COc1ccc(-c2ccccn2)c(OC(=O)c2ccccc2)c1 [W2]	>12.9	significant inhibitory activities	50.8 ± 16.7	> 656	240 ± 22	2.4	significant inhibitory activities	101 ± 14.1
Cc1cccnc1-c1ccc(F)cc1OC(=O)c1ccccc1 [W8]	–	–	–	843 ± 37.1	354 ± 49.5	4.4	selective antiviral activities against CVB3	80.1 ± 15
Cc1cccc(OC(=O)c2ccccc2)c1-c1ccccn1 [W3]	9.8	–	–	921 ± 59.5	630 ± 39.4	6.0	–	–
O=C(Oc1ccccc1-c1ccccn1)c1ccccc1 [W1]	–	–	–	1060 ± 93.5	594 ± 49.1	–	–	–
Cc1cccnc1-c1sccc1OC(=O)c1ccccc1 [W7]	–	–	–	1030 ± 63.1	350 ± 28.8	–	–	–
Cc1cccnc1-c1ccc(Br)cc1OC(=O)c1ccccc1 [W12]	3.3	selective anti-ADV7 activity	63.6 ± 16.6	211 ± 14.7	128 ± 17.9	–	–	–
